Test results published in ChEMBL document CHEMBL5214962, “Improving lipophilicity of 5-(1-acetyl-5-phenylpyrazolidin-3-ylidene)-1,3-dimethylbarbituric acid increases its efficacy to activate hypoxia-inducible factors” (Bioorg Med Chem, 2022).
Calls of active or inactive are those of the source. The rule behind the calls is not given here.

Assays:
SK-N-BE(2)-C = assay: Activation of HIF-alpha transcriptional activity in human SK-N-BE(2)-C expressing HRE-NLuc reporter system assessed as compound concentration require for 5 fold increase in NLuc luciferase activity incubated for 24 hrs by Nano-Glo luciferase assay; format: cell-based
[1] = Cytotoxicity against human SK-N-BE(2)-C expressing HRE-NLuc reporter system assessed as reduction in cell viability incubated for 24 hrs by CCK-8 assay; format: toxicity, cell-based; details: SK-N-BE(2)-C cells expressing HRE-NLuc reporter system, read-out: LC50
[2] = target: Hypoxia-inducible factor 1-alpha (Homo sapiens) (UniProt Q16665); assay: Induction of HIF-1alpha stabilization in human Hep3B cells assessed as HIF-1alpha level at 1 to 100 uM incubated for 24 hrs by immunoblot analysis; format: cell-based; details: filed as activator, dose 1-100 µM, DDE = dose-dependent effect
[3] = target: Endothelial PAS domain-containing protein 1 (Homo sapiens) (UniProt Q99814); assay: Induction of HIF-2alpha stabilization in human Hep3B cells assessed as […] at 1 to 100 uM incubated for 24 hrs by immunoblot analysis; format: cell-based; details: filed as activator, dose 1-100 µM, DDE = dose-dependent effect
[4] = target: Endothelial PAS domain-containing protein 1 (Homo sapiens) (UniProt Q99814); assay: Induction of HIF-2alpha stabilization in human Hep3B cells assessed as […] at 16 to 1000 nM incubated for 24 hrs by immunoblot analysis; format: cell-based; details: filed as activator, dose 16-1000 nM, DDE = dose-dependent effect
[5] = target: Hypoxia-inducible factor 1-alpha (Homo sapiens) (UniProt Q16665); assay: Induction of HIF-1alpha stabilization in human Hep3B cells assessed as HIF-1alpha level at 16 to 1000 nM incubated for 24 hrs by immunoblot analysis; format: cell-based; details: filed as activator, dose 16-1000 nM, DDE = dose-dependent effect
Hep3B [6] = assay: Activation of HIF dependent pathway in human Hep3B cells assessed as increase in EPO mRNA expression level at 10 to 100 uM incubated for 24 hrs by RT-qPCR analysis; format: cell-based; details: filed as activator, dose 10-100 µM
Hep3B [7] = assay: Activation of HIF dependent pathway in human Hep3B cells assessed as increase in CA9 mRNA expression level at 10 to 100 uM incubated for 24 hrs by RT-qPCR analysis; format: cell-based; details: filed as activator, dose 10-100 µM

Sequence of Endothelial PAS domain-containing protein 1 (Homo sapiens) (Q99814 whole entry, the tested form may be a part): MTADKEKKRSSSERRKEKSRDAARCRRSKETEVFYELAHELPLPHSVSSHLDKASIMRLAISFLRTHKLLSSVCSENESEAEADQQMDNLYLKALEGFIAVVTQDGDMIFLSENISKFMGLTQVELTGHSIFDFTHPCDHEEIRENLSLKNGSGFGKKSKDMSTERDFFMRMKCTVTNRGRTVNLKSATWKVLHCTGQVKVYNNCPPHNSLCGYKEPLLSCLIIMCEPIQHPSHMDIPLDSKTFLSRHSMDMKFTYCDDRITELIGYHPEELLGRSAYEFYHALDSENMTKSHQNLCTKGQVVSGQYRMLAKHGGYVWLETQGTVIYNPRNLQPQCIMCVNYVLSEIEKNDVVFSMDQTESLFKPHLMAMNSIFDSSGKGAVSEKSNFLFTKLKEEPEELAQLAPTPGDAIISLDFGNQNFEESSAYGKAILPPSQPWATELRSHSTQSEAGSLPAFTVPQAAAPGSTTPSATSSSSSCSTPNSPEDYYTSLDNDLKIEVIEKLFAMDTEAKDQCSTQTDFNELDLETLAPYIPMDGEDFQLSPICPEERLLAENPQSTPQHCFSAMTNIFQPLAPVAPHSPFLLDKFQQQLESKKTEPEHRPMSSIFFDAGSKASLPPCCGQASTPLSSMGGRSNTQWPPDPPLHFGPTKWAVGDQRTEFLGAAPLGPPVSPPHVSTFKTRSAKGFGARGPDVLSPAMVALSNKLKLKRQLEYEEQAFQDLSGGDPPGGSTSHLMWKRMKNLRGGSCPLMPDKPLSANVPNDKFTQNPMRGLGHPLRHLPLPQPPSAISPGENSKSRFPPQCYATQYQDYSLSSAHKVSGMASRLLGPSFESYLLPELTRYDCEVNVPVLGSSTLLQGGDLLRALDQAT
Sequence of Hypoxia-inducible factor 1-alpha (Homo sapiens) (Q16665 whole entry, looked up, the tested form may be a part): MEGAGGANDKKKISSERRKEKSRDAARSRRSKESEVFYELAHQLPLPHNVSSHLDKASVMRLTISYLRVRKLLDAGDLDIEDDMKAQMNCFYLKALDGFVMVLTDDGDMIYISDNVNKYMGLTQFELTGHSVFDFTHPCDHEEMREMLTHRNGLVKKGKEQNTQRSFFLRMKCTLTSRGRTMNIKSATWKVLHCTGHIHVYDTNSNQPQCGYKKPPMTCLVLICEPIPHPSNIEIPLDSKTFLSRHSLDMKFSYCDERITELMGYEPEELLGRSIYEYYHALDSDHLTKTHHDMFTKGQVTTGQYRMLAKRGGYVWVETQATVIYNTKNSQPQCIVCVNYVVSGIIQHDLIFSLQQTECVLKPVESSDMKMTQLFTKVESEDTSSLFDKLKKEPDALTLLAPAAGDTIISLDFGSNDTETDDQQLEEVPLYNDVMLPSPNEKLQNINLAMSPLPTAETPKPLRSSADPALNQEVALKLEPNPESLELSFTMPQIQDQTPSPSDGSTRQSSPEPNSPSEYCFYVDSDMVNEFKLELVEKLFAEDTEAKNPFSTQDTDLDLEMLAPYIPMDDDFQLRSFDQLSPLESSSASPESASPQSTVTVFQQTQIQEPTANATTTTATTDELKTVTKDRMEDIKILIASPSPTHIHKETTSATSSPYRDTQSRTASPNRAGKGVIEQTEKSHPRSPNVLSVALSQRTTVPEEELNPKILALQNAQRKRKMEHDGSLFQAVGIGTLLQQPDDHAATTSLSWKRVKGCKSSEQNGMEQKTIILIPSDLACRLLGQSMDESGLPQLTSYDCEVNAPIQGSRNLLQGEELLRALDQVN

In the case of `CC(=O)N1NC(=C2C(=O)N(C3CCCCC3)C(=O)N(C3CCCCC3)C2=O)CC1c1ccccc1` (centres undefined), the Activity (SK-N-BE(2)-C; filed as activator) is reported as 0.533 µM and the CC50 at 24 h [1] is reported as over 100 µM.

With `COc1cccc(C2CC(=C3C(=O)N(C)C(=O)N(C)C3=O)NN2C(C)=O)c1Cl` (centres undefined) the Activity (SK-N-BE(2)-C; filed as activator) was 26.1 µM and the CC50 at 24 h [1] was over 100 µM.

Compound `CCCCCCCCCC(=O)N1NC(=C2C(=O)N(C3CCCCC3)C(=O)N(C3CCCCC3)C2=O)CC1c1ccccc1` (centres undefined) has an Activity (SK-N-BE(2)-C) of over 100 µM and a CC50 at 24 h [1] of over 100 µM.

Work on `CC(=O)N1NC(=C2C(=O)N(C)C(=O)N(C)C2=O)CC1c1ccc(Oc2ccccc2)cc1` (centres undefined) yielded an Activity (SK-N-BE(2)-C; filed as activator) of 6.82 µM and a CC50 at 24 h [1] of over 100 µM.

For `CC(=O)N1NC(=C2C(=O)N(C)C(=O)N(C)C2=O)CC1c1ccc(-c2ccccc2)cc1` (centres undefined), the Activity (SK-N-BE(2)-C; filed as activator) was 3.88 µM and the CC50 at 24 h [1] was over 100 µM.

With `CC(=O)N1NC(=C2C(=O)N(C)C(=O)N(C)C2=O)CC1c1ccccc1` (centres undefined) the Activity [2] was “Dde”, the Activity (SK-N-BE(2)-C; filed as activator) was 14.3 µM and the Activity [3] was “Dde”. For the same compound, the CC50 at 24 h [1] was over 100 µM.

In the case of `CC(C)C(=O)N1NC(=C2C(=O)N(C3CCCCC3)C(=O)N(C3CCCCC3)C2=O)CC1c1ccccc1` (centres undefined), the Activity (SK-N-BE(2)-C; filed as activator) is reported as 0.364 µM and the CC50 at 24 h [1] is reported as over 100 µM.

In the case of `COc1ccc(C2CC(=C3C(=O)N(C)C(=O)N(C)C3=O)NN2C(C)=O)cc1` (centres undefined), the Activity (SK-N-BE(2)-C; filed as activator) is reported as 19.5 µM and the CC50 at 24 h [1] is reported as over 100 µM.

In the case of `CC(=O)N1NC(=C2C(=O)N(C)C(=O)N(C)C2=O)CC1c1ccc(Cl)cc1` (centres undefined), the Activity (SK-N-BE(2)-C; filed as activator) is reported as 9.1 µM and the CC50 at 24 h [1] is reported as over 100 µM.

In the case of `CCCCCC(=O)N1NC(=C2C(=O)N(C)C(=O)N(C)C2=O)CC1c1ccccc1` (centres undefined), the Activity (SK-N-BE(2)-C; filed as activator) is reported as 0.96 µM and the CC50 at 24 h [1] is reported as over 100 µM.

Work on `CC(=O)N1NC(=C2C(=O)N(C)C(=O)N(C)C2=O)CC1c1ccc2ccccc2c1` (centres undefined) yielded an Activity (SK-N-BE(2)-C; filed as activator) of 7.67 µM and a CC50 at 24 h [1] of over 100 µM.

`CC(C)C(=O)N1NC(=C2C(=O)N(C)C(=O)N(C)C2=O)CC1c1ccccc1` (centres undefined) showed an Activity (SK-N-BE(2)-C; filed as activator) of 8.55 µM and a CC50 at 24 h [1] of over 100 µM.

In the case of `CCC(=O)N1NC(=C2C(=O)N(C)C(=O)N(C)C2=O)CC1c1ccc(-c2ccccc2)cc1` (centres undefined), the Activity (SK-N-BE(2)-C; filed as activator) is reported as 3.87 µM and the CC50 at 24 h [1] is reported as over 100 µM.

For `CCC(=O)N1NC(=C2C(=O)N(C3CCCCC3)C(=O)N(C3CCCCC3)C2=O)CC1c1ccccc1` (centres undefined), the Activity (SK-N-BE(2)-C; filed as activator) was 0.126 µM and the CC50 at 24 h [1] was over 100 µM.

In the case of `CCCC(=O)N1NC(=C2C(=O)N(C)C(=O)N(C)C2=O)CC1c1ccccc1` (centres undefined), the Activity (SK-N-BE(2)-C; filed as activator) is reported as 4.85 µM and the CC50 at 24 h [1] is reported as over 100 µM.

With `Cc1nc(C(=O)NCC(=O)O)c(O)c2ccc(Oc3ccccc3)cc12` the Activity [2] was “Dde” and the Activity [3] was “Dde”.

With `CCCCCCCCc1ccc(C2CC(=C3C(=O)N(C)C(=O)N(C)C3=O)NN2C(C)=O)cc1` (centres undefined) the Activity (SK-N-BE(2)-C; filed as activator) was 12.9 µM and the CC50 at 24 h [1] was over 100 µM.

In the case of `CCCC(=O)N1NC(=C2C(=O)N(C3CCCCC3)C(=O)N(C3CCCCC3)C2=O)CC1c1ccccc1` (centres undefined), the Activity [2] is reported as “Dde”, the Activity (SK-N-BE(2)-C; filed as activator) is reported as 0.441 µM and the Activity [3] is reported as “Dde”. The CC50 at 24 h [1] was over 100 µM, the Activity [4] was “Dde” and the Activity [5] was “Dde”. For the same compound, the Activity (Hep3B [6]) was “Active” and the Activity (Hep3B [7]) was “Active”.

Work on `CCCCCCCCCC(=O)N1NC(=C2C(=O)N(C)C(=O)N(C)C2=O)CC1c1ccccc1` (centres undefined) yielded an Activity (SK-N-BE(2)-C; filed as activator) of 0.153 µM and a CC50 at 24 h [1] of over 100 µM.

`CCCCCC(=O)N1NC(=C2C(=O)N(C3CCCCC3)C(=O)N(C3CCCCC3)C2=O)CC1c1ccccc1` (centres undefined) gave an Activity (SK-N-BE(2)-C; filed as activator) of 2.41 µM and a CC50 at 24 h [1] of over 100 µM.

For `CC(=O)N1NC(=C2C(=O)N(C)C(=O)N(C)C2=O)CC1c1ccc(F)cc1` (centres undefined), the Activity (SK-N-BE(2)-C; filed as activator) was 16.5 µM and the CC50 at 24 h [1] was over 100 µM.

Work on `CC(=O)N1NC(=C2C(=O)N(C)C(=O)N(C)C2=O)CC1c1ccc(C)cc1` (centres undefined) yielded an Activity (SK-N-BE(2)-C; filed as activator) of 5.84 µM and a CC50 at 24 h [1] of over 100 µM.

`CCC(=O)N1NC(=C2C(=O)N(C)C(=O)N(C)C2=O)CC1c1ccccc1` (centres undefined) showed an Activity (SK-N-BE(2)-C; filed as activator) of 6.53 µM and a CC50 at 24 h [1] of over 100 µM.
